Measured values published in EP4786452A1, “AMIDE COMPOUNDS” (China Pharmaceutical University, priority 2023, dated 2025).
Marks after values point to notes of the source that are not given here. Values belong to the compound of their own block, whether it stands above or below them.

Columns and labels:
AR = AR antagonistic activity: AR / PSA ARE1 luciferase reporter gene assay in transfected LNCaP cells stimulated with 1 nM DHT; assay type: cell-based
Method: LNCaP cells were plated in a 6-well plate (Corning, 3516) at 8 × 10^5 cells/well.
Transfection reagents Lipo 3000 and P3000 (Lipofectamine™ 3000) and AR and PSA ARE1 reporter gene plasmids (Bio (Anhui) Co., Ltd.) (a total of 2.5 µg of plasmids, i.e., 1.25 µg of each plasmid, were added to each well) were left to stand and incubated at room temperature for 10 min, and then 250 µL of the above transfection reagents were added dropwise to each well containing cells.
The cells were washed with PBS, and the medium was replaced with a phenol red-free RPMI-1640 medium containing 5% carbon adsorption serum. The cells were re-plated onto a 96-well plate (Corning, 3603) according to the number of cells plated (2 × 10^4 cells/well).
After cell plating, the test compound (or DMSO or positive control) was added. After at least 30 min of incubation (incubator, 37 °C, 5% CO2), DHT (dihydrotestosterone) was added to the culture system at a final concentration of 1 nM. The culture system was then incubated in a carbon dioxide incubator. The final volume of the system in the plate was 100 µL.
Test compound: 10 mM stock solution, with a final concentration of 3.3 µM or 6.7 µM. Negative control: 0.1% DMSO. Positive control: 30 µM enzalutamide.
After the test compound (or DMSO or positive control) and DHT were co-incubated for 6 or 24 h, the luciferase signal was detected using the Vazyme Bright-Lite substrate. The medium was added at 70 µL/well, and the plate was shaken for 2 min, followed by reading of the luciferase signal.
Assay robustness was confirmed using the DMSO and low concentration control data: Ave_H = Ave (DMSO) [formula] Ave_L = Ave (30000nMenzalutamide) [formula] Inhibition rate (%) = (Ave_H−Sample)/(Ave_H−Ave_L) × 100% [formula] • Ave_H: the measurement of the negative control (0.1% DMSO); • Ave_L: the measurement of the positive control (30 µM enzalutamide); • Sample: the measurement of the test compound;

[1] = human, microsomes, 1 µM, pH 7.4
Method: (§1) The metabolic stability of compounds disclosed herein in liver microsomes was determined using the following method.
(§2) Liver microsome source: Human liver microsome (Corning, 452117) • 2. Na2HPO4 (Tianjin Guangfu Fine Chemical Research Institute, 20180130) • 3. KH2PO4 (Tianjin Guangfu Fine Chemical Research Institute, 20180920) • 4. MgCl2 (Tianjin Guangfu Fine Chemical Research Institute, 20191216) • 5. NADPH (Solarbio, 1216C022) • 6. Positive control compound: verapamil (Sigma, MKBV4993V) • 7. AB Sciex Triple Quad 4000 liquid chromatography-mass spectrometry system
(§3) Preparation of 100 mM phosphate-buffered saline (PBS): 7.098 g Na2HPO4 was dissolved in 500 mL of purified water by sonication to give solution A. 3.400 g of KH2PO4 was dissolved in 250 mL of purified water by sonication to give solution B. Solution A was placed on a stirrer, and solution B was added slowly until the pH reached 7.4, so as to give a 100 mM PBS buffer. […] Preparation of reaction system The reaction system was prepared according to the table below.
(§4) The reaction system was pre-incubated in a 37 °C water bath for 10 min. 40 µL of 10 mM NADPH solution (in 100 mM phosphate-buffered saline) was added to the reaction system, with the final NADPH concentration being 1 mM. A negative control was prepared by replacing the NADPH solution with 40 µL of phosphate-buffered saline. The negative control was used to exclude the effect of the chemical stability of the compound itself. […] The reaction was initiated by adding 4 µL of 100 µM compound disclosed herein or positive control compound verapamil to the reaction system at a final concentration of 1 µM. […] After 0.5 min, 15 min, 30 min, 45 min, and 60 min of mixing well by using a vortex oscillator, 50 µ L of the incubated sample was taken out, and glacial acetonitrile containing an internal standard of 4 folds was added to terminate the reaction. The sample was centrifuged at 3,220 g for 45 min. 90 µL of the supernatant was transferred to a feeding plate after the centrifugation was completed, and 90 µL ultrapure water was added. The mixture was well mixed for LC-MS/MS analysis.
(§5) All data were calculated by using Microsoft Excel software. The peak areas were determined by using an extracted ion chromatogram. The in vitro half-life (T1/2) of the test compound was determined by linear fitting of the natural logarithm of the elimination proportion of the test compound over time. In vitro half-life (T1/2) was calculated by the slope k: in vitro T1/2 = 0.693/k [formula]
(§6) The in vitro intrinsic clearance (in vitro CLint, unit: µL/min/mg protein) was calculated using the following formula: in vitro CLint = k × volume of incubation solution/enzyme protein content; [formula]

in vitro [2] = conditions: mouse, blood, Half-life T 1/2 in CD-1 mouse whole blood
Method: (§7) 1 mM stock solutions of the test compounds were prepared in DMSO, and a 1 mM stock solution of the reference compound propantheline was prepared in acetonitrile.
(§8) 4 µL of test compound stock solution (or reference compound stock solution) was added to 796 µL of pre-incubated whole blood (CD-1 mouse whole blood or human whole blood) at a final concentration of 5 µM. The final concentration of the solvent was 0.5%. At different time points (including 5 min, 15 min, 30 min, 60 min, and 120 min), a 50 µL aliquot of the whole blood containing the sample was added to a new tube and incubated in a 37 °C water bath with shaking at 60 rpm. The treatment was performed in duplicate. At designated time points, 300 µL of room-temperature quenching solution (a solution of acetonitrile containing internal standards (100 nM alprazolam, 500 nM labetalol, and 2 µM ketoprofen)) was added to the whole blood sample containing the sample to terminate the reaction. 50 µL of whole blood containing the sample was added to a new tube containing 300 µL of room-temperature quenching solution to prepare a sample at 0 min. All samples were vortexed for 5 min. The samples in the plate were centrifuged at 3220 g for 30 min at 4 °C to precipitate the proteins. 100 µL of the supernatant was transferred to a new 96-well plate containing 100 µL of water for LC-MS/MS analysis.
(§9) The peak area ratio was determined by using an extracted ion chromatogram. The proportion of remaining compound at each time point was calculated according to the following formula: Remaining proportion t min (%) = peak area ratio t min / peak area ratio 0 min × 100% [formula] • Peak area ratio t min: peak area ratio of reference compound to test compound at t min; • Peak area ratio 0 min: peak area ratio of reference compound to test compound at time zero.
(§10) The slope value was determined by linear regression on the curve of the natural logarithm of the remaining proportion of the test compound versus the incubation time.
(§11) Determination of in vitro half-life (in vitro t1/2) from the slope value: in vitro t1/2 = 0.693/k [formula] in the formula, k is the rate constant (k = -slope value)

in vitro [3] = conditions: human, blood, Half-life T 1/2 in human whole blood
Method: as §7, §8, §9, §10, §11

[4] = 5 µM
Method: as §7, §8, §9, §10, §11

[5] = 5 µM; remark: listed apart in the source
Method: as §7, §8, §9, §10, §11

in vitro [6] = conditions: human, microsomes; for microsomal CLint at 1 µM: pH 7.4, In vitro Clint; for half-life at 1 µM: pH 7.4, In vitro T1/2
Method: as §1, §2, §3, §4, §5, §6

C57BL/6 mice = experiment: In vivo pharmacodynamic study: hair growth scoring in shaved telogen-phase mice; conditions: for Score (mean±SD): hair growth score 0-5, 0.5 wt% applied to shaved area twice daily
Excerpt: Vehicle: propylene glycol/ethanol (30:70, v/v)
Animal information: C57BL/6 mice (male, aged 6 weeks, about 18-20 g), purchased from Shanghai Lingchang Biotechnology Co., Ltd. The mice were bred in an SPF-level environment within independently ventilated cages. All animals had free access to a certified, commercial standard laboratory diet and drinking water.
Skin preparation: After 1-2 weeks of acclimation, the hairs in a 2 cm × 3 cm area of the back of the mice were shaved to confirm that the hairs of the mice were in the telogen phase (the skin was pink) and the skin was not damaged.
The control group received the vehicle. 12 mice were in each group.
The scoring criteria are as follows: • 0: no growth, with pink skin in the shaved area; • 1: the skin in the shaved area was gray (an increase of less than 20%); • 2: the skin in the shaved area was black (more than 20% but less than 40%); • 3: the skin in the shaved area was black with a little hair growth (more than 40% but less than 60%); • 4: the skin in the shaved area was black with partial hair growth (more than 60% but less than 80%); • 5: basically complete hair growth (80%-100% growth) in the shaved area.

[7] = mouse, in vivo
Excerpt: Treatment: On day 3 after shaving, the mice were grouped for treatment. […] The control group received the vehicle. 12 mice were in each group.

[8] = incubation time: 24 h, test concentration: 3.3 µM, LNCaP cells, 1 nM DHT, normalised to 0.1% DMSO and 30 µM enzalutamide

Structure (SMILES): COC(=O)CCCC(C)(O)C(=O)Nc1cnc(C#N)c(C(F)(F)F)c1 (single isomer, unassigned) [Compound 007]
- AR antagonism (inhibition rate, %) (AR; 24 h, 6.7 µM): 100.00^c %
- microsomal CLint at 1 µM (in vitro [6]): 226 µL/min/mg
- half-life at 1 µM (in vitro [6]): 6.1 min
- half-life at 5 µM (in vitro [2]): 2.7 min
- half-life at 5 µM (in vitro [3]): 82.7 min

Structure (SMILES): COC(=O)CCCC(C)(O)C(=O)Nc1cnc(C#N)c(C(F)(F)F)c1 (single isomer, unassigned) [Compound 008]
- AR antagonism (inhibition rate, %) (AR; 6 h, 6.7 µM): 92.41^b %
- In vitro Clint [1]: 131.2 µL/min/mg protein
- In vitro T1/2 [1]: 10.6 min
- Half-life T 1/2 in CD-1 mouse whole blood [4]: 3.94 min
- Half-life T 1/2 in human whole blood [5]: 141.44 min

Structure (SMILES): CC(C)OC(=O)CCCC(C)(O)C(=O)Nc1cnc(C#N)c(C(F)(F)F)c1 (single isomer, unassigned) [Compound 009]
- AR antagonism (inhibition rate, %) (AR; 24 h, 6.7 µM): 97.66^c %
- microsomal CLint at 1 µM (in vitro [6]): 234 µL/min/mg
- half-life at 1 µM (in vitro [6]): 5.9 min
- half-life at 5 µM (in vitro [2]): 10 min
- half-life at 5 µM (in vitro [3]): 210 min

Structure (SMILES): CC(O)(CCCCO)C(=O)Nc1cnc(C#N)c(C(F)(F)F)c1 (centres unmarked) [Compound 001, N-[6-cyano-5-(trifluoromethyl)pyridin-3-yl]-2,6-dihydroxy-2-methyl-hexanamide]
- AR antagonism (inhibition rate, %) (AR; [8]): 87.89^a %

Structure (SMILES): CC(O)(CCO)C(=O)Nc1cnc(C#N)c(C(F)(F)F)c1 (centres unmarked) [Compound 002, N-[6-cyano-5-(trifluoromethyl)pyridin-3-yl]-2,4-dihydroxy-2-methylbutanamide]
- AR antagonism (inhibition rate, %) (AR; [8]): 59.75^a %

Structure (SMILES): CSc1cc(NC(=O)C(C)(O)CCCC(=O)OC(C)(C)C)cnc1C#N (centres unmarked) [Compound 019, tert-butyl 6-((6-cyano-5-(methylthio)pyridin-3-yl)amino)-5-hydroxy-5-methyl-6-oxohexanoate]
- AR antagonism (inhibition rate, %) (AR; incubation time: 6 h, test concentration: 6.7 µM, LNCaP cells, 1 nM DHT, normalised to 0.1% DMSO and 30 µM enzalutamide): 57.98^b %

Structure (SMILES): CCOC(=O)CCCC(C)(O)C(=O)Nc1cnc(C#N)c([Se]C)c1 (centres unmarked) [Compound 024, Ethyl 6-[(6-cyano-5-methylselanylpyridin-3-yl)amino]-5-hydroxy-5-methyl-6-oxohexanoate]
- AR antagonism (inhibition rate, %) (AR; [8]): 88.18^a %

Structure (SMILES): CCOC(=O)CCCCC(C)(O)C(=O)Nc1cnc(C#N)c(C(F)(F)F)c1 (centres unmarked) [Compound 027, Ethyl 7-((6-cyano-5-(trifluoromethyl)pyridin-3-yl)amino)-6-hydroxy-6-methyl-7-oxoheptanoate]
- AR antagonism (inhibition rate, %) (AR; [8]): 76.55^a %

Structure (SMILES): CCOC(=O)CCCC(C)(O)C(=O)Nc1ccc(C#N)c(SC)c1 (centres unmarked) [Compound 029, Ethyl 6-(4-cyano-3-methylthio-anilino)-5-hydroxy-5-methyl-6-oxohexanoate]
- AR antagonism (inhibition rate, %) (AR; [8]): 98.41^a %

Structure (SMILES): CCOC(=O)CCCC(C)(O)C(=O)Nc1ccc(C#N)c(OC)c1 (centres unmarked) [Compound 030, Ethyl 6-(4-cyano-3-methoxy-anilino)-5-hydroxy-5-methyl-6-oxohexanoate]
- AR antagonism (inhibition rate, %) (AR; [8]): 98.45^a %

Structure (SMILES): CSc1cc(NC(=O)C(O)CCCC(=O)OC(C)C)cnc1C#N (centres unmarked) [Compound 032, Isopropyl 6-((6-cyano-5-(methylthio)pyridin-3-yl)amino)-5-hydroxy-6-oxohexanoate]
- AR antagonism (inhibition rate, %) (AR; [8]): 92.25^a %

More lines, main results first:

- In vitro Clint [1]: 670.7 µL/min/mg protein
- In vitro T1/2 [1]: 2.1 min
- half-life at 5 µM (in vitro [2]): 3.54 min
- half-life at 5 µM (in vitro [3]): 119 min
Structure (SMILES): CCOC(=O)CCCC(C)(O)C(=O)Nc1cnc(C#N)c(C(F)(F)F)c1 (single isomer, unassigned) [Compound 005]
- AR antagonism (inhibition rate, %) (AR; 6 h, 6.7 µM): 92.96^b %

- In vitro Clint [1]: 199.5 µL/min/mg protein
- In vitro T1/2 [1]: 6.9 min
- Half-life T 1/2 in CD-1 mouse whole blood [4]: 3.61 min
- Half-life T 1/2 in human whole blood [5]: 183.42 min
Structure (SMILES): CCOC(=O)CCCC(C)(O)C(=O)Nc1cnc(C#N)c(C(F)(F)F)c1 (single isomer, unassigned) [Compound 006]
- AR antagonism (inhibition rate, %) (AR; 24 h, 3.3 µM): 88.13^a %
- AR antagonism (inhibition rate, %) (AR; 24 h, 6.7 µM): 90.51^c %

- In vitro Clint [1]: 124.8 µL/min/mg protein
- In vitro T1/2 [1]: 11.1 min
- Half-life T 1/2 in CD-1 mouse whole blood [4]: 5.97 min
- Half-life T 1/2 in human whole blood [5]: 351.20 min
Structure (SMILES): CC(C)OC(=O)CCCC(C)(O)C(=O)Nc1cnc(C#N)c(C(F)(F)F)c1 (single isomer, unassigned) [Compound 010]
- AR antagonism (inhibition rate, %) (AR; 24 h, 6.7 µM): 85.37^c %
- Score (mean±SD) (C57BL/6 mice; Day 0): 0
- Score (mean±SD) (C57BL/6 mice; Day 10): 0.2±0.4
- Score (mean±SD) (C57BL/6 mice; Day 13): 0.2±0.4
- Score (mean±SD) (C57BL/6 mice; Day 16): 0.3±0.5
- Score (mean±SD) (C57BL/6 mice; Day 20): 0.7±0.7
- Score (mean±SD) (C57BL/6 mice; Day 23): 0.8±0.6
- Score (mean±SD) (C57BL/6 mice; Day 27): 1.1±0.7
- Score (mean±SD) (C57BL/6 mice; Day 32, ** P < 0.01 vs. vehicle control group): 1.9±0.7**
- effect on hair growth (C57BL/6 mice; mice with telogen hair growth, 0.5 wt%, BID topically at 20 µL/cm^2, P < 0.01 from day 32): significant promoting effect on hair growth
- signs of erythema, dehiscence, desquamation on the skin [7]: no signs of erythema, dehiscence, desquamation

- microsomal CLint at 1 µM (in vitro [6]): 487 µL/min/mg
- half-life at 1 µM (in vitro [6]): 2.8 min
- half-life at 5 µM (in vitro [2]): < 0.5 min
- half-life at 5 µM (in vitro [3]): 118 min
Structure (SMILES): CCOC(=O)CCCC(C)(O)C(=O)Nc1cnc(C#N)c(SC)c1 (single isomer, unassigned) [Compound 013]

- In vitro Clint [1]: 270.78 µL/min/mg protein
- In vitro T1/2 [1]: 5.12 min
- Half-life T 1/2 in CD-1 mouse whole blood [4]: 4.34 min
- Half-life T 1/2 in human whole blood [5]: 164.02 min
Structure (SMILES): COC(=O)CCCC(C)(O)C(=O)Nc1cnc(C#N)c(SC)c1 (single isomer, unassigned) [Compound 015]
- AR antagonism (inhibition rate, %) (AR; 24 h, 3.3 µM): 92.46^a %

- In vitro Clint [1]: 1216.15 µL/min/mg protein
- In vitro T1/2 [1]: 1.14 min
- Half-life T 1/2 in CD-1 mouse whole blood [4]: 9.44 min
- Half-life T 1/2 in human whole blood [5]: 70.19 min
Structure (SMILES): COC(=O)CCCC(C)(O)C(=O)Nc1cnc(C#N)c(SC)c1 (single isomer, unassigned) [Compound 016]

- microsomal CLint at 1 µM (in vitro [6]): 243 µL/min/mg
- half-life at 1 µM (in vitro [6]): 5.7 min
- half-life at 5 µM (in vitro [2]): 4.64 min
- half-life at 5 µM (in vitro [3]): 206 min
Structure (SMILES): CSc1cc(NC(=O)C(C)(O)CCCC(=O)OC(C)C)cnc1C#N (single isomer, unassigned) [Compound 017]

- In vitro Clint [1]: 247.8 µL/min/mg protein
- In vitro T1/2 [1]: 5.6 min
- Half-life T 1/2 in CD-1 mouse whole blood [4]: 4.93 min
- Half-life T 1/2 in human whole blood [5]: 194.81 min
Structure (SMILES): CSc1cc(NC(=O)C(C)(O)CCCC(=O)OC(C)C)cnc1C#N (single isomer, unassigned) [Compound 018]
- AR antagonism (inhibition rate, %) (AR; 24 h, 6.7 µM): 63.12^c %

- Half-life T 1/2 in CD-1 mouse whole blood [4]: 1.13 min
- Half-life T 1/2 in human whole blood [5]: 89.49 min
Structure (SMILES): CCOC(=O)CCC[C@](C)(O)C(=O)Nc1cnc(C#N)c(SC)c1 [Compound 014, ethyl (6S)/(6R)-6-((6-cyano-5-(methylthio)pyridin-3-yl)amino)-5-hydroxy-5-methyl-6-oxohexanoate]
- AR antagonism (inhibition rate, %) (AR; incubation time: 24 h, test concentration: 6.7 µM, LNCaP cells, 1 nM DHT, normalised to 0.1% DMSO and 30 µM enzalutamide): 64.39^c %
